Assay results published in US20240043928A1, “BIOMARKERS FOR MYELODYSPLASTIC SYNDROME (MDS) AND METHODS OF USING THE SAME” (Eisai R&D Management Co., Ltd., priority 2020, published 2024).

Assay: Phase I study NCT02841540: treatment-related adverse events and dose-limiting toxicities
Type: in vivo, human
Description: Patients were enrolled using a conventional 3+3 dose escalation phase I design, with escalations based on a modified Fibonacci sequence scheme (Storer Biometrics. 1989;45(3):925-937). Dose escalations continued until a dose level at which ≥2 patients of the 3-6 enrolled experienced a dose-limiting toxicity (DLT). Maximally tolerated dose (MTD) was defined as the highest dose at which no more than 1 out of 6 patients experienced a DLT. DLTs were defined as any of the following: any Grade 3 or greater study drug-related non-hematologic toxicity except for Grade 3 nausea, vomiting, fatigue, or diarrhea that resolved to Grade 1 or less within 1 week; failure to administer at least 70% of the protocol-specific dose; or prolonged myelosuppression with the persistence of Grade 4 cytopenia in the absence of persistent leukemia or blast increase 21 or more days after suspending dosing. DLTs were assessed during the first 28 days using National Cancer Institute (NCI) Common Toxicity Criteria for Adverse Events (CTCAE) version 4.03.
The primary endpoints measured included occurrence of DLTs, the type and frequency of treatment-emergent adverse events (TEAEs), and serious adverse events (SAEs). Key secondary endpoints included drug pharmacokinetics (PK) and preliminary antitumor activity, such as the overall response rate (ORR), effect of drug therapy on transfusion requirements, and overall survival (OS). Biomarker analyses and drug pharmacodynamics (PD) were included as exploratory endpoints. […] In addition, a second schedule (Schedule II) of 21 days on therapy and a rest of 7 days without therapy was explored. […] However, when limited clinical activity was observed on Schedule I, Schedule II was introduced to test whether more prolonged spliceosome modulation would lead to higher clinical activity. Each treatment cycle was 28 days in length. Patients could continue treatment until disease progression or development of unacceptable toxicity.
Eligibility criteria included normal vitamin A levels and visual acuity that corrected to 20/40 unless a cataract was present. Ophthalmologic evaluation, including fundoscopic imaging and visual evoked potentials, was performed during study screening and periodically throughout the duration of the trial.

[1] = Schedule I, 1, 2, 3.5, & 5 mg QD, N = 25

With `C/C(=C\C=C\[C@@H](C)c1ccccn1)[C@H]1OC(=O)C[C@H](O)CC[C@@](C)(O)[C@@H](OC(=O)N2CCN(C)CC2)/C=C/[C@@H]1C` [Compound 1, (2S,3S,4E,6S,7R,10R)-7,10-dihydroxy-3,7-dimethyl-12-oxo-2-[(2E,4E,6R)-6-(pyridine-2-yl)hepta-2,4-dien-2-yl]oxacyclododec-4-en-6-yl-4-methylpiperazine-1-carboxylate] the “adverse event in a patient with SF3B1-mutant lower-risk MDS” value (7 mg, Schedule I, first week of study therapy) was “developed pancytopenia and marrow aplasia”, the “male share of subjects who reported grade 3 treatment related AEs” value (9 of the 12 subjects) was 75% and the “male share of subjects reporting treatment related AEs (all grades)” value (45 of the 63 subjects) was 71%. For the same compound, the “MTD (initially defined, not formally confirmed)” value (Schedule I) was 30 mg, the “recommended QD dose” value (Schedule I) was 30 mg per day and the “dose dependency in the rate of treatment related TEAEs (all grades)” value (Schedule I, 1 mg-40 mg) was “no obvious dose dependency”. For the same compound, the “Any TEAE (treatment-related, all grades)” value (Schedule I, 7 mg QD, N = 14) was 11 (79) n (%), the “Diarrhea (treatment-related TEAE, all grades)” value (Schedule I, 7 mg QD, N = 14) was 4 (29) n (%) and the “Fatigue (treatment-related TEAE, all grades)” value (Schedule I, 7 mg QD, N = 14) was 2 (14) n (%). For the same compound, the “Nausea (treatment-related TEAE, all grades)” value (Schedule I, 7 mg QD, N = 14) was 4 (29) n (%), the “Vomiting (treatment-related TEAE, all grades)” value (Schedule I, 7 mg QD, N = 14) was 2 (14) n (%) and the “patients with DLT marrow aplasia” value (Schedule I, 7 mg, lower-risk MDS and SF3B1 mutation) was 1 patient. The “Any TEAE (treatment-related, all grades)” value (Schedule I, 10 mg QD, N = 7) was 3 (43) n (%), the “Diarrhea (treatment-related TEAE, all grades)” value (Schedule I, 10 mg QD, N = 7) was 2 (29) n (%) and the “Fatigue (treatment-related TEAE, all grades)” value (Schedule I, 10 mg QD, N = 7) was 1 (14) n (%). For the same compound, the “Nausea (treatment-related TEAE, all grades)” value (Schedule I, 10 mg QD, N = 7) was 2 (29) n (%), the “Vomiting (treatment-related TEAE, all grades)” value (Schedule I, 10 mg QD, N = 7) was 2 (29) n (%) and the “Any TEAE (treatment-related, all grades)” value (Schedule I, 14 mg QD, N = 5) was 5 (100) n (%). For the same compound, the “Diarrhea (treatment-related TEAE, all grades)” value (Schedule I, 14 mg QD, N = 5) was 5 (100) n (%), the “Fatigue (treatment-related TEAE, all grades)” value (Schedule I, 14 mg QD, N = 5) was 0 n (%) and the “Nausea (treatment-related TEAE, all grades)” value (Schedule I, 14 mg QD, N = 5) was 1 (20) n (%). The “Vomiting (treatment-related TEAE, all grades)” value (Schedule I, 14 mg QD, N = 5) was 1 (20) n (%), the “Any TEAE (treatment-related, all grades)” value (Schedule I, 20 mg QD, N = 4) was 3 (75) n (%) and the “Diarrhea (treatment-related TEAE, all grades)” value (Schedule I, 20 mg QD, N = 4) was 1 (25) n (%). The “Fatigue (treatment-related TEAE, all grades)” value (Schedule I, 20 mg QD, N = 4) was 2 (50) n (%), the “Nausea (treatment-related TEAE, all grades)” value (Schedule I, 20 mg QD, N = 4) was 2 (50) n (%) and the “Vomiting (treatment-related TEAE, all grades)” value (Schedule I, 20 mg QD, N = 4) was 0 n (%). The “Any TEAE (treatment-related, all grades)” value (Schedule I, 30 mg QD, N = 4) was 4 (100) n (%), the “Diarrhea (treatment-related TEAE, all grades)” value (Schedule I, 30 mg QD, N = 4) was 3 (75) n (%) and the “Fatigue (treatment-related TEAE, all grades)” value (Schedule I, 30 mg QD, N = 4) was 1 (25) n (%). For the same compound, the “Nausea (treatment-related TEAE, all grades)” value (Schedule I, 30 mg QD, N = 4) was 3 (75) n (%), the “Vomiting (treatment-related TEAE, all grades)” value (Schedule I, 30 mg QD, N = 4) was 0 n (%) and the “patients with DLT prolonged QTcF >500 msec (investigator-assessed)” value (Schedule I, 40 mg) was 2 out of 6. For the same compound, the “subjects reporting grade 3 AEs” value (Schedule I, 40 mg) was 3 of 6, the “Any TEAE (treatment-related, all grades)” value (Schedule I, 40 mg QD, N = 6) was 5 (83) n (%) and the “Diarrhea (treatment-related TEAE, all grades)” value (Schedule I, 40 mg QD, N = 6) was 5 (83) n (%). For the same compound, the “Fatigue (treatment-related TEAE, all grades)” value (Schedule I, 40 mg QD, N = 6) was 2 (33) n (%), the “Nausea (treatment-related TEAE, all grades)” value (Schedule I, 40 mg QD, N = 6) was 3 (50) n (%) and the “Vomiting (treatment-related TEAE, all grades)” value (Schedule I, 40 mg QD, N = 6) was 3 (50) n (%). The “subjects reporting a treatment related TEAE” value (Schedule I, 40 mg, N=6) was 83%, the “Any TEAE (treatment-related, all grades)” value [1] was 19 (76) n (%) and the “Diarrhea (treatment-related TEAE, all grades)” value [1] was 7 (28) n (%). For the same compound, the “Fatigue (treatment-related TEAE, all grades)” value [1] was 3 (12) n (%), the “Nausea (treatment-related TEAE, all grades)” value [1] was 3 (12) n (%) and the “Vomiting (treatment-related TEAE, all grades)” value [1] was 1 (4) n (%). For the same compound, the “Anemia (Grade 3 or 4 treatment-related TEAE)” value (Schedule I, N = 65) was 4 (6) n (%), the “ECG QTcF prolonged (Grade 3 or 4 treatment-related TEAE)” value (Schedule I, N = 65) was 2 (3) n (%) and the “Fatigue (Grade 3 or 4 treatment-related TEAE)” value (Schedule I, N = 65) was 2 (3) n (%). The “Hypophosphatemia (Grade 3 or 4 treatment-related TEAE)” value (Schedule I, N = 65) was 0 n (%), the “Nausea (Grade 3 or 4 treatment-related TEAE)” value (Schedule I, N = 65) was 0 n (%) and the “Platelet count decreased (Grade 3 or 4 treatment-related TEAE)” value (Schedule I, N = 65) was 2 (3) n (%). The “Sinus bradycardia (Grade 3 or 4 treatment-related TEAE)” value (Schedule I, N = 65) was 0 n (%), the “Any TEAE (treatment-related, all grades)” value (Schedule I, Total, N = 65) was 50 (77) n (%) and the “Diarrhea (treatment-related TEAE, all grades)” value (Schedule I, Total, N = 65) was 27 (42) n (%). The “Fatigue (treatment-related TEAE, all grades)” value (Schedule I, Total, N = 65) was 11 (17) n (%), the “Nausea (treatment-related TEAE, all grades)” value (Schedule I, Total, N = 65) was 18 (28) n (%) and the “Vomiting (treatment-related TEAE, all grades)” value (Schedule I, Total, N = 65) was 9 (14) n (%). The “diarrhea, treatment-related TEAE” value (Schedule I, all patients) was 42%, the “fatigue, treatment-related TEAE” value (Schedule I, all patients) was 17% and the “nausea, treatment-related TEAE” value (Schedule I, all patients) was 28%. For the same compound, the “vomiting, treatment-related TEAE” value (Schedule I, all patients) was 14%, the “subjects reporting a treatment related TEAE” value (Schedule I, lowest combined dose level (1, 2, 3.5 and 5 mg, N=25)) was 76% and the “MTD (initially defined, not formally confirmed)” value (Schedule II) was 14 mg. The “recommended QD dose” value (Schedule II) was 14 mg per day.
